From patent US6492578B1, “Expression of herbicide tolerance genes in plant plastids” (Calgene LLC, priority 1998, dated 2002)
Where two headings read alike, the source gives them in different places.

How the values were obtained:
[1] = system: transplastomic tobacco lines containing EPSPS genes; test: In vitro glyphosate selection of shoots from plastid transformation with EPSPS constructs; assay type: cell-based
Method: (§1) A transplastomic tobacco line homoplasmic for the construct pMON38773 was tested in vitro to determine the highest level of glyphosate tolerance. Explant tissue was prepared from leaf pieces of nontransgenic wild type tobacco control, Havanna, plants and the homoplasmic tobacco line 38773-6 and cultured for regeneration of shoots on TSO medium (described above) supplemented with glyphosate levels of 50 μM, 75 μM, 100 μM, 150 μM and 200 μM. The number of explants producing shoots was determined at 3 weeks and 6 weeks after explant preparation and culturing on glyphosate containing medium.
Additional transplastomic lines were tested in vitro for glyphosate tolerance as bed above.
The numbers in parentheses are the number of shoots resistant to selection at 1 mM glyphosate.

[2] = system: Homoplasmic tobacco plants of the line 38773-6; test: Whole plant glyphosate spray test (track sprayer); assay type: in vivo
Method: (§2) Homoplasmic tobacco plants of the line 38773-6 are sprayed with glyphosate using a track sprayer at concentrations corresponding to 0 oz/acre, 16 oz/acre, 32 oz/acre and 64 oz/acre to test for whole plant tolerance. Plant height was measured before and after s praying with glyphosate. The vegetative injury data was collected two weeks after spraying, while the reproductive injury data was collected at plant maturity.
(§3) Tolerance is characterized by the continued growth and greening of tissues sprayed with glyphosate. However, as the concentration of glyphosate applied increased, there was a corresponding increase in the level of vegetative injury.

[3] = system: Wild type tobacco (nontransformed control plants); test: Whole plant glyphosate spray test (track sprayer); assay type: in vivo
Method: as §2, §3

EPSPS enzyme [4] = assay type: biochemical
Method: (§4) Methods for the analysis of EPSPS enzyme activity are described in Padgette et al. (J. Biol. Chem. (1988)263:1798-1802 and Arch. Biochem. Biophys. (1987)258:564-573) and Wibbenmeyer et al. (Biochem. Biophys. Res. Commun. (1988)153:760-766).
(§5) In addition, other transplastomic lines were analyzed for tolerance to spraying with various levels of glyphosate as described above. Specific activity is measured as the amount of exogenously added Phosphoenol pyruvate (PEP) converted to […] per unit protein in the plant extract. Addition of glyphosate tests sensitivity of the EPSPS enzyme to glyphosate.

EPSPS enzyme [5] = target: T1, EPSPS enzyme (Agrobacterium sp., UniProt Q9R4E4); assay type: biochemical
T1 construct: from tissue; host or cells: extracts of wild-type and transplastomic tobacco plants
T1 sequence (Q9R4E4 whole entry): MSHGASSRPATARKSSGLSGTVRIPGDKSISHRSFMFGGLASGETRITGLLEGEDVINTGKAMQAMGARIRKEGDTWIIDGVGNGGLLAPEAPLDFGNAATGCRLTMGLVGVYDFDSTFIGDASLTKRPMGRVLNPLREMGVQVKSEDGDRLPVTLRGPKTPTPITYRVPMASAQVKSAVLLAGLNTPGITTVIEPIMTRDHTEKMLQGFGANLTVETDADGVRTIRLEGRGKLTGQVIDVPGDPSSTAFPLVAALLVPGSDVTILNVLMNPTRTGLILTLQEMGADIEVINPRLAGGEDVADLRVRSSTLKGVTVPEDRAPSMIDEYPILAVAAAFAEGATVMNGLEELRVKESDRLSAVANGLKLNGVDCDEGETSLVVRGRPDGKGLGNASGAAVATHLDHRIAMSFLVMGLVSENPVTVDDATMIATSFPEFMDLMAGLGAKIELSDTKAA
Method: as §4, §5

[6] = system: homoplasmic tobacco line 38773-6; test: In vitro glyphosate tolerance: shoot regeneration from leaf explants on TSO medium with glyphosate; assay type: cell-based, Nicotiana tabacum cv. Havana
Method: as §1

[7] = system: nontransgenic wild type tobacco control, Havanna; test: as above; assay type: cell-based, Nicotiana tabacum cv. Havana; conditions: for Number Regenerating 3 Weeks / Number Regenerating 6 Weeks: 10 explants
Method: as §1

[8] = system: transplastomic (and nuclear pMON10154) tobacco lines expressing EPSPS; test: Glyphosate spray tolerance of other lines expressing EPSPS; assay type: in vivo
Method: as §2, §5

[9] = system: 5177 transformed tobacco lines and control lines; test: Norflurazon resistance analysis (watering with Norflurazon solution); assay type: in vivo; conditions: 3 μM Norflurazon solution
Method: An experiment was set up to determine the efficacy of the Crt I trait with respect to resistance to the herbicide Norflurazon. Three 5177 transformed lines, 74-1B-P, 74-2-A, and 74-7-C and three control lines were planted. Plants were grown for seven weeks and then watered with a 3 μM Norflurazon solution. Plants negative for the presence of the crtI plastid-borne gene were bleached by Norflurazon treatment, positive plants stayed green and continued to grow.

Nb2 cell line = test: Nb2 cell proliferation bioactivity assay (MTS); assay type: cell-based; conditions: pH adjusted and centrifuged extract of pMON38794 tobacco, 48 hrs, MTS (FIG. 5)
Method: Bioactivity of the pH adjusted and centrifuged extract was tested using cells from an Nb2 cell line. These cells proliferate in the presence of growth hormone and other […] type compounds. The assay involves putting various concentrations of growth hormone-containing extract into a 96 well plate. Then a constant amount of cells are added to each well. The plate is incubated for 48 hrs and then a reagent called MTS is added. Metabolizing cells take up the MTS and convert it to a blue colored substance. The more cells there are the more blue color in the well. The blue color is measured using a spectrophotometer. The number of cells should be proportional to the concentration of growth hormone in the media. At some high concentration one expects that the cells will become saturated with growth hormone and that the dose response will level off. At very low hGH concentrations essentially no enhanced growth is seen.

[10] = line 38773-6, glyphosate 50 μM, 8 explants
[11] = line 38773-6, glyphosate 75 μM, 18 explants
[12] = line 38773-6, glyphosate 100 μM, 17 explants
[13] = line 38773-6, glyphosate 150 μM, 18 explants
[14] = line 38773-6, glyphosate 200 μM, 16 explants
[15] = line pMON10154 (nuclear), glyphosate spray
[16] = line pMON30123, glyphosate spray
[17] = line pMON30130, glyphosate spray
[18] = line pMON38773, glyphosate spray
[19] = line pMON38798, glyphosate spray
[20] = line pMON45201, glyphosate spray

Q: For `O=C(O)CNCP(=O)(O)O` [glyphosate, N-phosphonomethylglycine], which “glyphosate selection level tolerated by generated tobacco lines” value ([1]; in vitro selection, Table 5 lines) is on record?
A: 1 mM

Q: What about the “No. of shoots Gly 50 uM(+)” value ([1]; pMON38766 (T7), 6 Spec/strep (+) shoots) of the same compound?
A: 0

Q: And the “No. of shoots Gly 50 uM(+)” value ([1]; pMON38766 (Wild), 1 Spec/strep (+) shoot)?
A: 0

Q: What about the “No. of shoots Gly 50 uM(+)” value ([1]; pMON38773 (Wild), 9 Spec/strep (+) shoots) of the same compound?
A: 5

Q: What about the “No. of shoots positive at 1 mM glyphosate” value ([1]; pMON38773 (Wild), number in parentheses) of the same compound?
A: 1

Q: And the “No. of shoots Gly 50 uM(+)” value ([1]; pMON38793, 8 Spec/strep (+) shoots)?
A: 0

Q: What about the “No. of shoots Gly 50 uM(+)” value ([1]; pMON38796, 4 Spec/strep (+) shoots) of the same compound?
A: 0

Q: What about the “No. of shoots Gly 50 uM(+)” value ([1]; pMON38797 (Wild), 2 Spec/strep (+) shoots) of the same compound?
A: 0

Q: What about the “No. of shoots Gly 50 uM(+)” value ([1]; pMON38798, 6 Spec/strep (+) shoots) of the same compound?
A: 6

Q: What about the “No. of shoots Gly 50 uM(+)” value ([1]; pMON45201, 9 Spec/strep (+) shoots) of the same compound?
A: 3

Q: And the “glyphosate concentration tolerated (vegetative tissue injury)” value ([2]; initial results, homoplasmic tobacco lines sprayed)?
A: 16 oz/acre

Q: What about the “glyphosate rate with a good level of tolerance” value ([2]; transplastomic lines, spray) of the same compound?
A: 32 oz/acre

Q: And the “Reproductive tolerance (oz/acre)” value ([3]; Wild-type, glyphosate spray)?
A: 0 oz/acre

Q: What about the “Vegetative tolerance (oz/acre)” value ([3]; Wild-type, glyphosate spray) of the same compound?
A: 0 oz/acre

Q: And the “susceptibility to sprayed glyphosate” value ([3]; nontransformed control plants, glyphosate concentrations as low as 16 oz/acre)?
A: highly susceptible

Q: And the “SPECIFIC ACTIVITY (nmol/min/mg) +1 mM gly” value (EPSPS enzyme [4]; Wild-type plant extract, No gly: 3.4)?
A: 0 nmol/min/mg

Q: What about the “SPECIFIC ACTIVITY (nmol/min/mg) +1 mM gly” value (EPSPS enzyme [4]; line pMON30123 extract, No gly: 4.0) of the same compound?
A: 0 nmol/min/mg

Q: And the “SPECIFIC ACTIVITY (nmol/min/mg) +1 mM gly” value (EPSPS enzyme [4]; line pMON30130 extract, No gly: 6.2)?
A: 0 nmol/min/mg

Q: What about the “SPECIFIC ACTIVITY (nmol/min/mg) +1 mM gly” value (EPSPS enzyme [4]; line pMON38798 extract, No gly: 17.2) of the same compound?
A: 14.7 nmol/min/mg

Q: What about the “SPECIFIC ACTIVITY (nmol/min/mg) +1 mM gly” value (EPSPS enzyme [4]; line pMON45204 extract, No gly: 339.9) of the same compound?
A: 371.8 nmol/min/mg

Q: What about the “SPECIFIC ACTIVITY (nmol/min/mg) +1 mM gly” value (EPSPS enzyme [5]; line pMON10154 (nuclear CP4 control) extract, No gly: 19.0) of the same compound?
A: 18.4 nmol/min/mg

Q: And the “SPECIFIC ACTIVITY (nmol/min/mg) +1 mM gly” value (EPSPS enzyme [5]; line pMON38773 extract, No gly: 16.7)?
A: 6.7 nmol/min/mg

Q: And the “% Explant Regeneration” value ([6]; line 38773-6, glyphosate 50 μM)?
A: 100%

Q: What about the “Number Regenerating 3 Weeks” value [6, 10] of the same compound?
A: 5

Q: And the “Number Regenerating 6 Weeks” value [6, 10]?
A: 8

Q: And the “% Explant Regeneration” value ([6]; line 38773-6, glyphosate 75 μM)?
A: 100%

Q: And the “Number Regenerating 3 Weeks” value [6, 11]?
A: 14

Q: And the “Number Regenerating 6 Weeks” value [6, 11]?
A: 18

Q: And the “% Explant Regeneration” value ([6]; line 38773-6, glyphosate 100 μM)?
A: 88%

Q: And the “Number Regenerating 3 Weeks” value [6, 12]?
A: 12

Q: What about the “Number Regenerating 6 Weeks” value [6, 12] of the same compound?
A: 15

Q: What about the “% Explant Regeneration” value ([6]; line 38773-6, glyphosate 150 μM) of the same compound?
A: 89%

Q: What about the “Number Regenerating 3 Weeks” value [6, 13] of the same compound?
A: 10

Q: What about the “Number Regenerating 6 Weeks” value [6, 13] of the same compound?
A: 16

Q: And the “% Explant Regeneration” value ([6]; line 38773-6, glyphosate 200 μM)?
A: 86%

Q: What about the “Number Regenerating 3 Weeks” value [6, 14] of the same compound?
A: 8

Q: What about the “Number Regenerating 6 Weeks” value [6, 14] of the same compound?
A: 15

Q: What about the “glyphosate level tolerated in vitro” value ([6]; tobacco expressing EPSPS in plastids (pMON38773), shoot regeneration) of the same compound?
A: at least 200 μM

Q: And the “% Explant Regeneration” value ([7]; glyphosate 50 μM)?
A: 0%

Q: What about the “Number Regenerating 3 Weeks” value ([7]; glyphosate 50 μM) of the same compound?
A: 0

Q: What about the “Number Regenerating 6 Weeks” value ([7]; glyphosate 50 μM) of the same compound?
A: 0

Q: And the “% Explant Regeneration” value ([7]; glyphosate 75 μM)?
A: 0%

Q: What about the “Number Regenerating 3 Weeks” value ([7]; glyphosate 75 μM) of the same compound?
A: 0

Q: And the “Number Regenerating 6 Weeks” value ([7]; glyphosate 75 μM)?
A: 0

Q: And the “% Explant Regeneration” value ([7]; glyphosate 100 μM)?
A: 0%

Q: What about the “Number Regenerating 3 Weeks” value ([7]; glyphosate 100 μM) of the same compound?
A: 0

Q: And the “Number Regenerating 6 Weeks” value ([7]; glyphosate 100 μM)?
A: 0

Q: And the “% Explant Regeneration” value ([7]; glyphosate 150 μM)?
A: 0%

Q: And the “Number Regenerating 3 Weeks” value ([7]; glyphosate 150 μM)?
A: 0

Q: And the “Number Regenerating 6 Weeks” value ([7]; glyphosate 150 μM)?
A: 0

Q: And the “% Explant Regeneration” value ([7]; glyphosate 200 μM)?
A: 0%

Q: And the “Number Regenerating 3 Weeks” value ([7]; glyphosate 200 μM)?
A: 0

Q: And the “Number Regenerating 6 Weeks” value ([7]; glyphosate 200 μM)?
A: 0

Q: And the “Reproductive tolerance (oz/acre)” value [8, 15]?
A: 64 oz/acre

Q: And the “Vegetative tolerance (oz/acre)” value [8, 15]?
A: 128 oz/acre

Q: And the “Reproductive tolerance (oz/acre)” value [8, 16]?
A: 0 oz/acre

Q: And the “Vegetative tolerance (oz/acre)” value [8, 16]?
A: 0 oz/acre

Q: And the “Reproductive tolerance (oz/acre)” value [8, 17]?
A: 0 oz/acre

Q: And the “Vegetative tolerance (oz/acre)” value [8, 17]?
A: 0 oz/acre

Q: What about the “Reproductive tolerance (oz/acre)” value [8, 18] of the same compound?
A: 16 oz/acre

Q: What about the “Vegetative tolerance (oz/acre)” value [8, 18] of the same compound?
A: 32 oz/acre

Q: What about the “Reproductive tolerance (oz/acre)” value [8, 19] of the same compound?
A: 16 oz/acre

Q: And the “Vegetative tolerance (oz/acre)” value [8, 19]?
A: 32 oz/acre

Q: And the “Reproductive tolerance (oz/acre)” value [8, 20]?
A: 32 oz/acre

Q: And the “Vegetative tolerance (oz/acre)” value [8, 20]?
A: 32 oz/acre

Q: What about the glyphosate level tolerated ([8]; subsequent experiments with additional transformed transplastomic lines) of the same compound?
A: 64 oz/acre

Q: With `CNc1cnn(-c2cccc(C(F)(F)F)c2)c(=O)c1Cl` [Norflurazon] as the compound, how does the Norflurazon resistance ([9]; control plants) read?
A: susceptible

Q: And the “Result (Norflurazon resistance)” value ([9]; line 74-1B-P (homoplasmic 5177))?
A: Resistant

Q: And the “Result (Norflurazon resistance)” value ([9]; line 74-2-A (homoplasmic 5177))?
A: Resistant

Q: And the “Result (Norflurazon resistance)” value ([9]; line 74-7-C (homoplasmic 5177))?
A: Resistant

Q: What about the “Result (Norflurazon resistance)” value ([9]; line 75-5D-A (Control)) of the same compound?
A: Susceptible

Q: What about the “Result (Norflurazon resistance)” value ([9]; line 2560A Xanthi (Control)) of the same compound?
A: Susceptible

Q: And the “Result (Norflurazon resistance)” value ([9]; line Xanthi (Control), plants grown seven weeks)?
A: Susceptible

Q: And the Norflurazon resistance ([9]; three homoplasmic 5177 tobacco lines)?
A: resistant

Q: Which “bioactivity: absorbance vs hGH concentration” value (Nb2 cell line) does the source give for “hGH: Human Growth Hormone expressed from tobacco plastids (pMON38794), tested as pH adjusted and centrifuged leaf extract” here?
A: sigmoidal shape
